From article PMC7983170 (Biochemical pharmacology, 2018)

Biological target: T1, ABCG2 (Homo sapiens, UniProt Q9UNQ0)
T1 sequence (Q9UNQ0 1-655): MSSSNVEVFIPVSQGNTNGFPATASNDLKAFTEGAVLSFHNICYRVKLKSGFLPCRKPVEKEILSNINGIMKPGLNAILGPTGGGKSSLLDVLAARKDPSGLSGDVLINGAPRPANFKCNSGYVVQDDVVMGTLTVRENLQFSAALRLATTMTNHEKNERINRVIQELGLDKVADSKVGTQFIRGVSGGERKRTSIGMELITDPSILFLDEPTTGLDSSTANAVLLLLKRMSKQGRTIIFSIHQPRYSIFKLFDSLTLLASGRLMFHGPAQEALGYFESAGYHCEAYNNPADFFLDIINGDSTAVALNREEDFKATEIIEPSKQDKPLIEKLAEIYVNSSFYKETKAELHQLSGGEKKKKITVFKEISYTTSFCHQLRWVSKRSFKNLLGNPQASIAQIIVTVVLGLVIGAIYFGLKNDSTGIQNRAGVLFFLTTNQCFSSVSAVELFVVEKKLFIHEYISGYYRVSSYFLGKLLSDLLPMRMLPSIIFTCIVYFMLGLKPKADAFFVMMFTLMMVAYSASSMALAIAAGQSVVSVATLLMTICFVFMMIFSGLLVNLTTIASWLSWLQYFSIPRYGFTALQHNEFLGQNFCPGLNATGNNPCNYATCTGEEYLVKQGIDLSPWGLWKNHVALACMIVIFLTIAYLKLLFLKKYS
Assay: stimulation of vanadate-sensitive ATPase activity in membrane vesicles
Assay type: biochemical

EC50: ~14.7 µM
Structure (SMILES): O=C(CCCCCCNC(=O)c1cnc(N(c2ccccc2)c2ccccc2)nc1)NO [ricolinostat]
